Data: US8703961B2, “Thiazole derivatives for the treatment of diseases such as cancer” (Merck Patent GmbH, priority 2009, dated 2014)

Assays:
Test in all cases: filter binding kinase assay
Assay type in all cases: biochemical
PRKCA = target: T1, PRKCA (Homo sapiens, UniProt P17252); details: derived from % inhibition at 1 μM
T1 construct: purchased
Protocol: (§1) All kinase assays were carried out using the Multidrop 384 from Thermo-Fisher at room temperature in a total assay volume of 25.5 μl. 15 μl of an enzyme mix comprising enzyme and substrate in buffer are added to the test batch comprising either 0.5 μl of test substance, DMSO control or empty container. Test substances are pre-incubated in the presence of the enzyme and substrate for 5 minutes before the reaction is initiated by addition of 10 μl of ATP (concentration kinase-dependent of […]). The reaction is terminated by addition of 5 μl of orthophosphoric acid (50 mM). The test containers are then transferred onto P81 Unifilter plates by means of a “Packard Harvester” and dried in air. The dry Unifilter plates are sealed after the addition of MicroScint O, and the radioactivity is determined in a Packard Topcount NXT.

MAPK1 = target: T2, MAPK1 (Homo sapiens, UniProt P28482); details: derived from % inhibition at 1 μM; first MAPK1 line
T2 construct: purchased
Protocol: as §1

BRSK1 = target: T3, BRSK1 (Homo sapiens, UniProt Q8TDC3); details: derived from % inhibition at 1 μM
T3 construct: purchased
T3 sequence (Q8TDC3 1-778): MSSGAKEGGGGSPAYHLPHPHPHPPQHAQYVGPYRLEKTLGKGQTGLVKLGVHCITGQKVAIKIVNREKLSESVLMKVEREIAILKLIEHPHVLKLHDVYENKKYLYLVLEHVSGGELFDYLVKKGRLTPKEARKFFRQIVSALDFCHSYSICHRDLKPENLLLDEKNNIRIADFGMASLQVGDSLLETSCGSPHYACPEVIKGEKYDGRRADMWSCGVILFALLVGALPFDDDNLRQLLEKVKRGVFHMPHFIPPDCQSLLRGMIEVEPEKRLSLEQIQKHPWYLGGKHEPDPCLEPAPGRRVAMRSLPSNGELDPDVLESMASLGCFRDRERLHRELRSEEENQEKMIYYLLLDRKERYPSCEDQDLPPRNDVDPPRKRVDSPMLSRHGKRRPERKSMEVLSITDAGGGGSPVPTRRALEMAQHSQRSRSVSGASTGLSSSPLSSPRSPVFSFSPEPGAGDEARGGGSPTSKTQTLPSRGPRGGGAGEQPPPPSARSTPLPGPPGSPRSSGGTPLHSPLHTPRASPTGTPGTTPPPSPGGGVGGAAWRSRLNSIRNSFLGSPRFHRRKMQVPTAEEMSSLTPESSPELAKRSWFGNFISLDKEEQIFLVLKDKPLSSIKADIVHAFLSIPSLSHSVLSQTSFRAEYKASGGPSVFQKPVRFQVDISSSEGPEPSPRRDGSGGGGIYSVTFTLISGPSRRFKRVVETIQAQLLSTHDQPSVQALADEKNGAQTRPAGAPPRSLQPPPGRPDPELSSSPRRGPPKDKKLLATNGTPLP
Protocol: as §1

IGF1R = target: T4, IGF1R (Homo sapiens, UniProt P08069); details: derived from % inhibition at 1 μM
T4 construct: purchased
Protocol: as §1

MARK4 = target: T5, MARK4 (Homo sapiens, UniProt Q96L34); details: derived from % inhibition at 1 μM
T5 construct: purchased
T5 sequence (Q96L34 1-752): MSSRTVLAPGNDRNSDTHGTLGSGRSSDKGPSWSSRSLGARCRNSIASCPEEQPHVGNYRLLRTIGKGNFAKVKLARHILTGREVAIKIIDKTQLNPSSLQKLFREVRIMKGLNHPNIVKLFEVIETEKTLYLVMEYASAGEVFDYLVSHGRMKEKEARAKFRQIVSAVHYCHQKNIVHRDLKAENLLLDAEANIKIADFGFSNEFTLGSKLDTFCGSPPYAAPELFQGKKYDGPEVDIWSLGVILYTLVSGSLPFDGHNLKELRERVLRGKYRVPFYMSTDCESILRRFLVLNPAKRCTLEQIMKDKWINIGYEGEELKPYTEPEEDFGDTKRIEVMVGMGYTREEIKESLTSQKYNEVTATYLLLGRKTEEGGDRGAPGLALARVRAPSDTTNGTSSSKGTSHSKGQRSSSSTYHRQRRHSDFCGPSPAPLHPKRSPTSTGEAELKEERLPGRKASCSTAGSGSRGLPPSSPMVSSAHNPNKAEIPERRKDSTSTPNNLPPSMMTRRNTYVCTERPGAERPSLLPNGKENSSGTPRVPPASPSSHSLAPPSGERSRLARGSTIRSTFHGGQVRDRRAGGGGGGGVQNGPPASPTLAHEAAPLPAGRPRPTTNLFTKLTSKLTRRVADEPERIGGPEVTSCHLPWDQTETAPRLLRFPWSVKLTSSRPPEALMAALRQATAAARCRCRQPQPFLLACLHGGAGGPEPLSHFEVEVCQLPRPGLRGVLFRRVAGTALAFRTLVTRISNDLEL
Protocol: as §1

MAPKAPK3 = target: T6, MAPKAPK3 (Homo sapiens, UniProt Q16644); details: derived from % inhibition at 1 μM
T6 construct: purchased
Protocol: as §1

SGK = target: T7, SGK (Homo sapiens, UniProt O00141); details: derived from % inhibition at 1 μM
T7 construct: purchased
T7 sequence (O00141 1-431): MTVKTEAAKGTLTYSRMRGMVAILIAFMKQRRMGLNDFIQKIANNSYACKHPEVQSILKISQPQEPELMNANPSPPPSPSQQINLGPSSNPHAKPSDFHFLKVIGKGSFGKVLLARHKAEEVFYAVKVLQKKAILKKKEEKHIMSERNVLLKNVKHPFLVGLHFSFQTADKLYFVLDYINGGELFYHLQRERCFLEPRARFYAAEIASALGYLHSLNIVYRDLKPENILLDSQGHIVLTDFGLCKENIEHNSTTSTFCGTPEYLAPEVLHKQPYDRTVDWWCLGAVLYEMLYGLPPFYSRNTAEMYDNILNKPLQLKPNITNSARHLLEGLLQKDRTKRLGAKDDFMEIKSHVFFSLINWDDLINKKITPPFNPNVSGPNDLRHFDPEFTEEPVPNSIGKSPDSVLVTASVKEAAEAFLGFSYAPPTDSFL
Protocol: as §1

T2 sequence (P28482 whole entry, species assumed): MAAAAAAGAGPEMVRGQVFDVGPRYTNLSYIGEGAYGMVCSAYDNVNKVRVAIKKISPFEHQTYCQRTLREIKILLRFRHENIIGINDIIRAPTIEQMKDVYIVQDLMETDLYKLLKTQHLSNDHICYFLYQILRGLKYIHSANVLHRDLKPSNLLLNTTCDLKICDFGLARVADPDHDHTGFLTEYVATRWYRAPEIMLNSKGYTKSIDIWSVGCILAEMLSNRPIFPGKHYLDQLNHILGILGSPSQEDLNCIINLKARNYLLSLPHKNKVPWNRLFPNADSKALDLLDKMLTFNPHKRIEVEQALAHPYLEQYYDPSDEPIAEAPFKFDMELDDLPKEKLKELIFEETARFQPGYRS
T4 sequence (P08069 31-1367, species assumed): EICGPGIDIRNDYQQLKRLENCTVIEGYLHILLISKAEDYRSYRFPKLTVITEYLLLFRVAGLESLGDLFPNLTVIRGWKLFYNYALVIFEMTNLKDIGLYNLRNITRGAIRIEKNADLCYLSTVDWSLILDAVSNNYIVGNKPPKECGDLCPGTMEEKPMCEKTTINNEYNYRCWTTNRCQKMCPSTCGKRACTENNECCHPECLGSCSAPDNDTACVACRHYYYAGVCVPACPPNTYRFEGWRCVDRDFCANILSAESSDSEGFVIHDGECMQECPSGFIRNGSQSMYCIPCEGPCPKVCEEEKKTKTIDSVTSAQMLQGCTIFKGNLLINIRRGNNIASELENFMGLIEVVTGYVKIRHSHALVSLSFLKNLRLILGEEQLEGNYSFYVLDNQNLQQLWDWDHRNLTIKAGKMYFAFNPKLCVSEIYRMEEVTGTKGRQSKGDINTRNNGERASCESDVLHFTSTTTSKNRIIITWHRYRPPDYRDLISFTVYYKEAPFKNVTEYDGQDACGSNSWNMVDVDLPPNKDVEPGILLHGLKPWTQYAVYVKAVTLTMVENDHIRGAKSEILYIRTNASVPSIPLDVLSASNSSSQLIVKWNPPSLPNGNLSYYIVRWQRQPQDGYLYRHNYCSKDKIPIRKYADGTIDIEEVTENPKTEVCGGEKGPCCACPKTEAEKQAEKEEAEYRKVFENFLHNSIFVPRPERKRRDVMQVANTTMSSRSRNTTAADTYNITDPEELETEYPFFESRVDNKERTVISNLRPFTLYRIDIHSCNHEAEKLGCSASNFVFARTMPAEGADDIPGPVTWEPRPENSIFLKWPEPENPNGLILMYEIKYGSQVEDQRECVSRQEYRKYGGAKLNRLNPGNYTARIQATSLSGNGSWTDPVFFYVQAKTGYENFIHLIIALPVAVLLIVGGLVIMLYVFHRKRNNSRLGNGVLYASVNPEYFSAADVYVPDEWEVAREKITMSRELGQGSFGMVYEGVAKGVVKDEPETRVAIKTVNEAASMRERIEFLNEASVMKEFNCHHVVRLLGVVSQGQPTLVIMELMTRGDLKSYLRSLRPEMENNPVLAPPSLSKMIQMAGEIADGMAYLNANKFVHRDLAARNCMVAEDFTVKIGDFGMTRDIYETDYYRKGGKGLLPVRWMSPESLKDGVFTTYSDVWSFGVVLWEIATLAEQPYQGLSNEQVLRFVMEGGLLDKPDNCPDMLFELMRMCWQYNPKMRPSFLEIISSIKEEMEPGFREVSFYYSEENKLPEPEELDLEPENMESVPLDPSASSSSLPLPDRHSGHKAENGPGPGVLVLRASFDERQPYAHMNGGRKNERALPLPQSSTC
T6 sequence (Q16644 whole entry, species assumed): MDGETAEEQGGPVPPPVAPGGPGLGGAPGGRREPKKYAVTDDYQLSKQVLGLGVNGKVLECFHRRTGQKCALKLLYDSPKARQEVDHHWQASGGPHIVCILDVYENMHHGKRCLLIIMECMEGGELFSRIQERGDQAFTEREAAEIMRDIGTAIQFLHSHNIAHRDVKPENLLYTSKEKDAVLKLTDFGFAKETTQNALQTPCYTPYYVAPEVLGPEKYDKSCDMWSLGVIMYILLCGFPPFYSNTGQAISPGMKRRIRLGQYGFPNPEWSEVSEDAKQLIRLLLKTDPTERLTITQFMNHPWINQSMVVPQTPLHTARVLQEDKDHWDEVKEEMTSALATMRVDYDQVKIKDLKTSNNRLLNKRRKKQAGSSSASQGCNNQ

For `c1ccc(Cc2c[nH]c3ncsc23)cc1` [Compound A7, 6-benzyl-4H-pyrrolo[2,3-d]thiazole], which IC50 (PRKCA) is on record?
Its IC50 is 10 to 100 µM.

What about the IC50 (MAPK1) of the same molecule?
Its IC50 is over 1 µM.

What about the IC50 (BRSK1) of the same molecule?
Its IC50 is 1 to 10 µM.

And the IC50 (IGF1R)?
The IC50 was 10 to 100 µM.

What about the IC50 (MARK4) of the same molecule?
The IC50 was over 1 µM.

What about the IC50 (MAPKAPK3) of the same molecule?
Its IC50 is over 1 µM.

And the IC50 (SGK)?
Its IC50 is over 1 µM.

Which results are given for `Nc1ncsc1C#Cc1cnc2[nH]ccc2c1` [Compound A22, 5-(1H-pyrrolo[2,3-b]pyridin-5-ylethynyl)thiazol-4-ylamine]?
IC50 (PRKCA): 1 to 10 µM; IC50 (MAPK1): 10 to 100 µM; IC50 (BRSK1): 1 to 10 µM; IC50 (IGF1R): 1 to 10 µM; IC50 (MARK4): 10 to 100 µM; IC50 (MAPKAPK3): > 1 µM; IC50 (SGK): 1 to 10 µM

With `Nc1ncsc1C#Cc1cccc(O)c1` [Compound A27, 3-(4-aminothiazol-5-ylethynyl)phenol] as the molecule, how does the IC50 (PRKCA) read?
The IC50 was over 1 µM.

And the IC50 (MAPK1)?
The IC50 was 1 to 10 µM.

And the IC50 (BRSK1)?
The IC50 was 1 to 10 µM.

And the IC50 (IGF1R)?
Its IC50 is over 1 µM.

What about the IC50 (MARK4) of the same molecule?
Its IC50 is 1 to 10 µM.

What about the IC50 (MAPKAPK3) of the same molecule?
Its IC50 is 10 to 100 µM.

And the IC50 (SGK)?
Its IC50 is over 1 µM.

Which results are given for `CC(C)(C)OC(=O)Nc1ncsc1C#CCN1C(=O)c2ccccc2C1=O` [Compound A26, tert-butyl{5-[3-(1,3-dioxo-1,3-dihydroisoindol-2-yl)prop-1-ynyl]-thiazol-4-yl}carbamate]?
IC50 (PRKCA): 1 to 10 µM; IC50 (MAPK1): 10 to 100 µM; IC50 (BRSK1): > 1 µM; IC50 (IGF1R): > 1 µM; IC50 (MARK4): > 1 µM; IC50 (MAPKAPK3): > 1 µM; IC50 (SGK): 1 to 10 µM

How did the IC50 (PRKCA) turn out when `CC(C)(C)OC(=O)Nc1nc(-c2ccncc2)sc1C#CCN1CCOCC1` [Compound A25, tert-butyl[5-(3-morpholin-4-ylprop-1-ynyl)-2-pyridin-4-ylthiazol-4-yl]-carbamate] was run?
Its IC50 is 10 to 100 µM.

What about the IC50 (MAPK1) of the same molecule?
Its IC50 is over 1 µM.

What about the IC50 (BRSK1) of the same molecule?
The IC50 was over 1 µM.

What about the IC50 (IGF1R) of the same molecule?
Its IC50 is over 1 µM.

What about the IC50 (MARK4) of the same molecule?
Its IC50 is 10 to 100 µM.

What about the IC50 (MAPKAPK3) of the same molecule?
Its IC50 is 10 to 100 µM.

And the IC50 (SGK)?
The IC50 was 10 to 100 µM.
